One assay has as its system CD8+ T cells. Put plainly: In vitro immunogenicity: T-cell priming with artificial APCs loaded with peptide/MHC and anti-CD28, pMHC multimer readout. The format is cell-based, human. As to conditions: for Wells positive [%]: Table 10B, HLA-A*02 restricted peptides, percentage of positive wells among evaluable. The text has this:
In order to obtain information regarding the immunogenicity of the TUMAPs of the present invention, the inventors performed investigations using an in vitro T-cell priming assay based on repeated stimulations of CD8+ T cells with artificial antigen presenting cells (aAPCs) loaded with peptide/MHC complexes and anti-CD28 antibody.
In order to perform in vitro stimulations by artificial antigen presenting cells loaded with peptide-MHC complex (pMHC) and anti-CD28 antibody, the inventors first isolated CD8+ T cells from fresh HLA-A*02 leukapheresis products via positive selection using CD8 microbeads (Miltenyi Biotec, Bergisch-Gladbach, Germany) of healthy donors obtained from the University clinics Mannheim, Germany, after informed consent.
PBMCs and isolated CD8+ lymphocytes were incubated in T-cell medium (TCM) until use consisting of RPMI-Glutamax (Invitrogen, Karlsruhe, Germany) supplemented with 10% heat inactivated human AB serum (PAN-Biotech, Aidenbach, Germany), 100 U/ml Penicillin/100 μg/ml Streptomycin (Cambrex, Cologne, Germany), 1 mM sodium pyruvate (CC Pro, Oberdorla, Germany), 20 μg/ml Gentamycin (Cambrex). 2.5 ng/ml IL-7 (PromoCell, Heidelberg, Germany) and 10 U/ml IL-2 (Novartis Pharma, Nürnberg, Germany) were also added to the TCM at this step.
Generation of pMHC/anti-CD28 coated beads, T-cell stimulations and readout was performed in a highly defined in vitro system using four different pMHC molecules per stimulation condition and 8 different pMHC molecules per readout condition.
The purified co-stimulatory mouse IgG2a anti human CD28 Ab 9.3 (Jung et al., 1987) was chemically biotinylated using Sulfo-N-hydroxysuccinimidobiotin as recommended by the manufacturer (Perbio, Bonn, Germany). Beads used were 5.6 μm diameter streptavidin coated polystyrene particles (Bangs Laboratories, Illinois, USA).
800.000 beads/200 μl were coated in 96-well plates in the presence of 4×12.5 ng different biotin-pMHC, washed and 600 ng biotin anti-CD28 were added subsequently in a volume of 200 μl. Stimulations were initiated in 96-well plates by co-incubating 1×10^6 CD8+ T cells with 2×10^5 washed coated beads in 200 μl TCM supplemented with 5 ng/ml IL-12 (PromoCell) for 3 days at 37° C. Half of the medium was then exchanged by fresh TCM supplemented with 80 U/ml IL-2 and incubating was continued for 4 days at 37° C. This stimulation cycle was performed for a total of three times. For the pMHC multimer readout using 8 different pMHC molecules per condition, a two-dimensional combinatorial coding approach was used as previously described (Andersen et al., 2012) with minor modifications encompassing coupling to 5 different fluorochromes. Finally, multimeric analyses were performed by staining the cells with Live/dead near IR dye (Invitrogen, Karlsruhe, Germany), CD8-FITC antibody clone SK1 (BD, Heidelberg, Germany) and fluorescent pMHC multimers. For analysis, a BD LSRII SORP cytometer equipped with appropriate lasers and filters was used. Peptide specific cells were calculated as percentage of total CD8+ cells. Evaluation of multimeric analysis was done using the FlowJo software (Tree Star, Oregon, USA). In vitro priming of specific multimer+CD8+ lymphocytes was detected by comparing to negative control stimulations.

The target in another assay is HLA-A*02:01 (Homo sapiens, UniProt P04439, D140Y/D185E/D98H/E176V/E277Q/G131W/G231S/I119V/I121R/I166T/I218V/L300P/L318F/N151K/N90K/P208A/P217A/Q86G/Q94H/R138H/R169H/T345S). As to the kind of experiment: MHC binding assay (UV-ligand exchange, β2m ELISA). As to conditions: MHC class I binding score; binding to HLA-A*02:01 ranged by peptide exchange yield (UV-ligand exchange, β2m ELISA). In a few lines:
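Peptide–MHC complexes formed by UV-ligand exchange, cleaving a UV-sensitive peptide so the test peptide can bind. Exchange yield measured by ELISA: complexes captured on streptavidin-coated wells, diluted 100-fold, detected with HRP anti-β2m (1 h, 37 °C) and TMB at 450 nm, against refolded HLA-A*02:01/MLA-001 standards (15-500 ng/ml).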
(An ELISA detects its analyte on a solid surface through an enzyme-linked reagent.)

Where [1] appears, read: Table 10A, HLA class I peptides.

With “3 (VLFKDPVSV; listed as Homo sapiens) [compound 3]”, in the assay on CD8+ T cells, the “Wells positive [%]” value is on record as “+ (<20% = +)”. Besides, the Peptide exchange result with HLA-A*02:01 was “++++ (>75% = ++++)”.
In the same order, the values of “4 (KTWDQVPFSV; listed as Homo sapiens) [compound 4]” are “+ (<20% = +)” and “++++ (>75% = ++++)”.
For the substance “8 (SIIPYLLEA; listed as Homo sapiens) [compound 8]”, the “Wells positive [%]” value with CD8+ T cells is “++ (20%-49% = ++)”. The Peptide exchange entry with HLA-A*02:01 is listed as “++++ (>75% = ++++)”.
Consider “9 (SLAGLVLYV; listed as Homo sapiens) [compound 9]”, for which the “Wells positive [%]” value in the assay with CD8+ T cells is “++ (20%-49% = ++)”. The Peptide exchange result in the assay with HLA-A*02:01 was “++++ (>75% = ++++)”.
The matching figures for “10 (KMTQYITEL; listed as Homo sapiens) [compound 10]”: “++ (20%-49% = ++)” and “++++ (>75% = ++++)”.
For “11 (TLIELLLPKL; listed as Homo sapiens) [compound 11]”, the “Wells positive [%]” value with CD8+ T cells is reported as “+ (<20% = +)”. Moreover, the Peptide exchange entry with HLA-A*02:01 is “++++ (>75% = ++++)”.
The matching figures for “12 (RLDDKTTNV; listed as Homo sapiens) [compound 12]”: “++ (20%-49% = ++)” and “+++ (>50 = +++)”.
The matching figures for “13 (IQSETTVTV; listed as Homo sapiens) [compound 13]”: “++ (20%-49% = ++)” and “++++ (>75% = ++++)”.
In the case of “14 (VLYEMLYGL; listed as Homo sapiens) [compound 14]”, the “Wells positive [%]” value with CD8+ T cells is recorded as “+++ (50%-69% = +++)”. In addition, in the assay with HLA-A*02:01, the Peptide exchange result is given as “++++ (>75% = ++++)”.
Turning to “15 (VLYDPVVGC; listed as Homo sapiens) [compound 15]”, the “Wells positive [%]” value in the assay on CD8+ T cells is recorded as “+ (<20% = +)”. Also, the Peptide exchange entry with HLA-A*02:01 is recorded as “++++ (>75% = ++++)”.
In the same order, the values of “16 (GLFPSNFVTA; listed as Homo sapiens) [compound 16]” are “+ (<20% = +)” and “++++ (>75% = ++++)”.
With “17 (GVVHGVATV; listed as Homo sapiens) [compound 17]”, the “Wells positive [%]” value with CD8+ T cells was “+ (<20% = +)”. Further, in the assay with HLA-A*02:01, the Peptide exchange entry is recorded as “++++ (>75% = ++++)”.
On to “18 (SLADVVDTL; listed as Homo sapiens) [compound 18]”, for which the “Wells positive [%]” value in the assay with CD8+ T cells is “+ (<20% = +)”. The Peptide exchange entry in the assay with HLA-A*02:01 is listed as “++++ (>75% = ++++)”.
“20 (VISPHGIASV; listed as Homo sapiens) [compound 20]”: the “Wells positive [%]” value in the assay with CD8+ T cells was “++ (20%-49% = ++)”. Moreover, in the assay with HLA-A*02:01, the Peptide exchange result is on record as “++++ (>75% = ++++)”.
With “21 (FMYNFQLVTL; listed as Homo sapiens) [compound 21]”, in the assay with CD8+ T cells, the “Wells positive [%]” value is “+ (<20% = +)”. Also, the Peptide exchange result with HLA-A*02:01 is recorded as “++ (>20% = ++)”.
“31 (FLPRKFPSL; listed as Homo sapiens) [compound 31]”: the “Wells positive [%]” value with CD8+ T cells was “++ (20%-49% = ++)”. Also, in the assay with HLA-A*02:01, the Peptide exchange entry is recorded as “++++ (>75% = ++++)”.
The matching figures for “33 (SLYSYFQKV; listed as Homo sapiens) [compound 33]”: “++++ (≥70% = ++++)” and “++++ (>75% = ++++)”.
In the same order, the values of “34 (YLINFEIRSL; listed as Homo sapiens) [compound 34]” are “+ (<20% = +)” and “++++ (>75% = ++++)”.
In the same order, the values of “116 (LMDETMKEL; listed as Homo sapiens) [compound 116]” are “+ (<20% = +)” and “++++ (>75% = ++++)”.
As for “121 (FLEDLVPYL; listed as Homo sapiens) [compound 121]”, the “Wells positive [%]” value in the assay on CD8+ T cells is “+++ (50%-69% = +++)”. Further, the Peptide exchange result in the assay with HLA-A*02:01 was “++++ (>75% = ++++)”.
For the substance “128 (ALFPGDVDRL; listed as Homo sapiens) [compound 128]”, the “Wells positive [%]” value in the assay with CD8+ T cells was “+ (<20% = +)”. Moreover, the Peptide exchange entry with HLA-A*02:01 is “+++ (>50 = +++)”.
The matching figures for “133 (ALDPAYTTL; listed as Homo sapiens) [compound 133]”: “+ (<20% = +)” and “+++ (>50 = +++)”.
The matching figures for “155 (GLAGFFASV; listed as Homo sapiens) [compound 155]”: “++++ (≥70% = ++++)” and “++++ (>75% = ++++)”.
Consider “189 (KALQFLEEV; listed as Homo sapiens) [compound 189]”, for which the “Wells positive [%]” value in the assay with CD8+ T cells is reported as “+ (<20% = +)”. For the same substance, the Peptide exchange result with HLA-A*02:01 is “++++ (>75% = ++++)”.
Turning to “191 (YLDKMNNNI; listed as Homo sapiens) [compound 191]”, in the assay with CD8+ T cells, the “Wells positive [%]” value is “+ (<20% = +)”. Besides, the Peptide exchange entry with HLA-A*02:01 is listed as “++++ (>75% = ++++)”.
“192 (KLFTQIFGV; listed as Homo sapiens) [compound 192]”: in the assay with CD8+ T cells, the “Wells positive [%]” value is “+ (<20% = +)”. Besides, the Peptide exchange entry with HLA-A*02:01 was “++++ (>75% = ++++)”.
In the same order, the values of “211 (FLPFLTTEV; listed as Homo sapiens) [compound 211]” are “+ (<20% = +)” and “++++ (>75% = ++++)”.
As for “213 (LLDPTNVFI; listed as Homo sapiens) [compound 213]”, the “Wells positive [%]” value in the assay on CD8+ T cells was “++ (20%-49% = ++)”. The Peptide exchange entry with HLA-A*02:01 is “++++ (>75% = ++++)”.
The matching figures for “232 (KILPDLNTV; listed as Homo sapiens) [compound 232]”: “+ (<20% = +)” and “++++ (>75% = ++++)”.
Turning to “336 (YVDPVITSI; listed as Homo sapiens) [compound 336]”, in the assay with CD8+ T cells (setting [1]), the “Donors (in vitro immunogenicity)” value is “++++ (≥70% = ++++)” and the “Wells (in vitro immunogenicity)” value was “++ (20%-49% = ++)”.
